Test: Stability of dehydroacetic acid in aqueous low-pH skin care compositions
Assay type: physicochemical
Settings: observation from formulation attempts
Description: Dehydroacetic acid also has proven effective in improving skin texture and appearance, and has the additional benefit of reducing oily skin. See, for example, Biederman et al., U.S. Pat. No. 6,150,403. […] Therefore, a need remains for stable, low-pH skin care compositions to effect delivery of dehydroacetic acid, either alone or in combination with other low-pH skin care actives.
The present invention describes skin care compositions in which dehydroacetic acid is stabilized at a pH of about 4.5 and below. […] To effect stabilization of dehydroacetic acid, the compositions of the present invention include oils that have both an optimal solubility parameter and limited solubility in water. The present invention describes stable skin care compositions made by a procedure that utilizes this combination of properties to stabilize dehydroacetic acid in its active form at a low-pH.
Herein, “stable” and “stability” mean compositions which are substantially unaltered in chemical or physical state. […] Transport and storage conditions may include prolonged exposure to temperatures of from about −50° F. to about 150° F. Stability may be determined either by empirical observation or by appropriate methods of chemical analysis that would be known to one of skill in the art.

Compound: CC(=O)C1C(=O)C=C(C)OC1=O (stereo not shown) [dehydroacetic acid, 3-acetyl-6-methyl-2H-pyran-2,4,(3H)-dione]
- pH below which dehydroacetic acid begins to exhibit instability: below 7.0
